# Literature values in patent US8883207B2, “Controlled release carvedilol formulation” (TSH Biopharm Corporation Ltd., priority 2009, dated 2014).
# Where two headings read alike, the source gives them in different places.
# What was measured:
# [1] = not given; remark: listed apart in the source
structure (smiles),measurement,setting,value
"COc1ccccc1OCCNCC(O)COc1cccc2[nH]c3ccccc3c12 (racemic) [carvedilol, ((±)1-(carbazol-4-yloxy-3-[[2-(o-methoxyphenoxy)ethyl]-amino]-2-propanol)]",solubility in gastric fluid,"gastric fluid (simulated, TS, pH 1.1)",low solubility
same,solubility in intestinal fluid,"intestinal fluid (simulated, TS without pancreatin, pH 7.5)",low solubility
same,solubility in water,water,low solubility
same,relative absorption,[1]; colon,7%
same,relative absorption,[1]; ileum,28%
same,relative absorption,[1]; jejunum,56%
